Test results taken from PubChem BioAssay (NCI).
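Cultured in 96-well plates, cells were exposed to test compound for 48 hours across five concentrations. The concentration for full growth arrest is given as TGI.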

Tests used:
Experiment in all cases: DTP human tumour cell line panel, 48 h
[1] = tested on: HT29 colon
[2] = tested on: OVCAR-3 ovarian
[3] = tested on: MDA-MB-435
[4] = tested on: SF-268 CNS
[5] = tested on: 786-0 renal
[6] = tested on: NCI-H226 lung
[7] = tested on: NCI-H522 lung
[8] = tested on: HCT-116 colon
[9] = tested on: OVCAR-5 ovarian
[10] = tested on: SW-620 colon
[11] = tested on: IGROV1 ovarian
[12] = tested on: SF-539 CNS
[13] = tested on: HOP-62 NSCLC
[14] = tested on: DU-145 prostate
[15] = tested on: NCI-H23 lung
[16] = tested on: SR leukemia
[17] = tested on: SNB-19 CNS
[18] = tested on: BT-549 breast
[19] = tested on: SF-295 CNS
[20] = tested on: SK-MEL-5 melanoma
[21] = tested on: ACHN renal
[22] = tested on: MDA-MB-231 breast
[23] = tested on: UACC-257 melanoma
[24] = tested on: MDA-N
[25] = tested on: A549 NSCLC
[26] = tested on: MOLT-4 leukemia
[27] = tested on: NCI/ADR-RES ovarian
[28] = tested on: UO-31 renal
[29] = tested on: T-47D breast
[30] = tested on: NCI-H460 lung
[31] = tested on: SK-OV-3 ovarian
[32] = tested on: SK-MEL-2 melanoma
[33] = tested on: OVCAR-4 ovarian
[34] = tested on: HCT-15 colon
[35] = tested on: EKVX NSCLC
[36] = tested on: OVCAR-8 ovarian
[37] = tested on: KM12 colon
[38] = tested on: A498 renal
[39] = tested on: UACC-62 melanoma
[40] = tested on: HS 578T breast
[41] = tested on: M14 melanoma
[42] = tested on: LOX IMVI melanoma
[43] = tested on: PC-3 prostate
[44] = tested on: SK-MEL-28 melanoma
[45] = tested on: RPMI-8226 leukemia
[46] = tested on: COLO 205 colon
[47] = tested on: HCC-2998 colon
[48] = tested on: K-562 leukemia
[49] = tested on: SNB-75 CNS
[50] = tested on: TK-10 renal
[51] = tested on: MCF7 breast
[52] = tested on: RXF 393 renal
[53] = tested on: HL-60(TB) leukemia
[54] = tested on: CCRF-CEM leukemia
[55] = tested on: CAKI-1 renal
[56] = tested on: MALME-3M melanoma
[57] = tested on: HOP-92 NSCLC
[58] = tested on: SN12C renal
[59] = tested on: U251 CNS

Compound: CCCCC(=O)OC[n+]1ccc(-c2c(COC(=O)NC(C)C)c(COC(=O)NC(C)C)c3n2CCC3)cc1
- TGI [1]: > 100 µM
- TGI [2]: > 100 µM
- TGI [3]: > 100 µM
- TGI [4]: > 100 µM
- TGI [5]: > 100 µM
- TGI [6]: > 100 µM
- TGI [7]: > 100 µM
- TGI [8]: > 100 µM
- TGI [9]: > 100 µM
- TGI [10]: > 100 µM
- TGI [11]: > 100 µM
- TGI [12]: > 100 µM
- TGI [13]: > 100 µM
- TGI [14]: > 100 µM
- TGI [15]: > 100 µM
- TGI [16]: > 84.4 µM
- TGI [17]: > 100 µM
- TGI [18]: > 100 µM
- TGI [19]: > 100 µM
- TGI [20]: > 100 µM
- TGI [21]: > 100 µM
- TGI [22]: > 100 µM
- TGI [23]: > 100 µM
- TGI [24]: > 100 µM
- TGI [25]: > 100 µM
- TGI [26]: > 80.7 µM
- TGI [27]: > 100 µM
- TGI [28]: > 100 µM
- TGI [29]: > 100 µM
- TGI [30]: > 100 µM
- TGI [31]: > 100 µM
- TGI [32]: > 100 µM
- TGI [33]: > 100 µM
- TGI [34]: > 100 µM
- TGI [35]: > 100 µM
- TGI [36]: > 100 µM
- TGI [37]: > 100 µM
- TGI [38]: 76.5 µM
- TGI [39]: > 100 µM
- TGI [40]: > 100 µM
- TGI [41]: > 100 µM
- TGI [42]: > 100 µM
- TGI [43]: > 100 µM
- TGI [44]: > 100 µM
- TGI [45]: > 100 µM
- TGI [46]: > 100 µM
- TGI [47]: > 100 µM
- TGI [48]: > 100 µM
- TGI [49]: > 100 µM
- TGI [50]: > 100 µM
- TGI [51]: > 100 µM
- TGI [52]: > 100 µM
- TGI [53]: > 79.8 µM
- TGI [54]: > 100 µM
- TGI [55]: > 100 µM
- TGI [56]: > 100 µM
- TGI [57]: > 100 µM
- TGI [58]: > 100 µM
- TGI [59]: > 100 µM

Compound: CCCCCCCCCCCC(=O)NCc1ccc(OC(=O)CCCCCCCCCCC)c(OC)c1
- TGI [1]: > 100 µM
- TGI [2]: > 100 µM
- TGI [3]: > 100 µM
- TGI [4]: > 100 µM
- TGI [5]: > 100 µM
- TGI [6]: > 100 µM
- TGI [7]: 12.2 µM
- TGI [8]: > 100 µM
- TGI [9]: > 100 µM
- TGI [10]: > 100 µM
- TGI [11]: > 57.3 µM
- TGI [12]: 16.7 µM
- TGI [13]: > 100 µM
- TGI [14]: > 100 µM
- TGI [15]: > 100 µM
- TGI [16]: > 92.8 µM
- TGI [17]: > 100 µM
- TGI [18]: > 100 µM
- TGI [19]: > 100 µM
- TGI [20]: > 100 µM
- TGI [21]: > 100 µM
- TGI [22]: > 100 µM
- TGI [23]: > 100 µM
- TGI [24]: > 100 µM
- TGI [25]: > 100 µM
- TGI [26]: > 100 µM
- TGI [27]: > 100 µM
- TGI [28]: > 100 µM
- TGI [29]: > 100 µM
- TGI [30]: > 100 µM
- TGI [31]: > 100 µM
- TGI [32]: > 100 µM
- TGI [33]: > 100 µM
- TGI [34]: > 100 µM
- TGI [35]: > 100 µM
- TGI [36]: > 100 µM
- TGI [37]: > 100 µM
- TGI [38]: > 100 µM
- TGI [39]: > 100 µM
- TGI [40]: > 100 µM
- TGI [41]: > 100 µM
- TGI [42]: > 100 µM
- TGI [43]: 97.9 µM
- TGI [44]: > 100 µM
- TGI [45]: > 100 µM
- TGI [46]: > 72.4 µM
- TGI [47]: > 100 µM
- TGI [48]: > 100 µM
- TGI [49]: > 100 µM
- TGI [50]: > 100 µM
- TGI [51]: > 100 µM
- TGI [52]: > 100 µM
- TGI [53]: 37.8 µM
- TGI [54]: 11.6 µM
- TGI [55]: > 100 µM
- TGI [56]: > 100 µM
- TGI [57]: > 100 µM
- TGI [58]: > 100 µM
- TGI [59]: > 100 µM
